Data: patent publication US20210299094A1, “METHODS OF UPREGULATING TIPARP AS ANTICANCER STRATEGIES” (CORNELL UNIVERSITY, priority 2018, published 2021)
Like-named read-outs stand apart in the source and are kept apart here. Values belong to the compound of their own block, whether it stands above or below them. Where a SMILES comes first, the peptide text is derived from it. The star is where a group is joined. Cbz = O=C(OCc1ccccc1)*

Legend:
MCF-7 = test: Growth inhibition IC50 in MCF-7 cells, control vs TiPARP knockdown; type: cell-based; settings: Homo sapiens
Protocol: (§1) For transient overexpression of proteins of interest, cells were transfected with expression vectors using FuGene 6 (Promega, E2691) according to the manufacturer's protocol. To stably knock down TiPARP, lentivirus was produced by transfecting HEK 293T cells with pCMV-ΔR8.2 (packaging vector), pM2D.G (envelope vector) and shRNAs (Sigma). Virus-containing medium was harvested 24 hr after transfection. Target ceils were seeded in a 6-well plate 20 hr prior to transduction (3×10^5 cells per well). At the confluence of 50%, target cells were transduced with virus particles in medium supplemented with 5 μg/ml polybrene (Sigma), and incubated for 6 hr. Remove supernatant and add fresh medium to the cells. 72 hr after infection, 2 μg/mL puromycin was added to the cell culture media for 10 days to select stably transduced target cells.
(§2) IC50 values for Biochanin A was measured in HCT116, SKBR3 and MCF-7 cell lines where TiPARP was knocked down.

HCT116 [1] = test: IC50 in HCT116 cell line; type: cell-based; settings: Homo sapiens, HCT-116
TiPARP mRNA [2] = test system: TiPARP mRNA
Protocol: (§3) Quantitative Real Time PCR (qRT-PCR)
(§4) Total RNA. was isolated using RNeasy Mini kit (Qiagen) according to the manufacturer's instructions. 0.2 μg sample of total RNA was employed for cDNA synthesis using the Superscript III First-Strand Synthesis kit (Invitrogen) following the manufacturer's instructions. For quantitative real-time PCR analysis, iTaq Universal SYBR Green Supermix (Bio-Rad) was used following the manufacturer's instructions. The reaction was performed with QuantStudio™ 7 Flex Real-Time PCR System (APPLIED BIOSYSTEMS™). In each run, melt curve analysis was performed to ensure the amplification of a single product. The relative expression of each gene, normalized to actin, was calculated using the 2^−ΔΔCt method. The following primers were used for qRT-PCR: VEGF: 5′-[…]-3′ (SEQ ID NO: 24) and 5′-[…]-3′ (SEQ ID NO: 25); GLUT1: 5′-[…] CTAAA-3′ (SEQ ID NO: 26) and 5′˜[…]-3′ (SEQ ID NO: 27); PDK1: 5′-[…]-3′ (SEQ ID NO: 28) and 5′-[…]-3′ (SEQ ID NO: 29); WSBJ: 5′-[…]-3′ (SEQ ID NO: 30) and 5′-[…]-3′ (SEQ ID NO: 31); LDHA: 5′-[…]-3′ (SEQ ID NO: 32) and 5′-[…] CAG-3′ (SEQ ID NO: 33); CXCR4: 5′-[…]-3′ (SEQ ID NO: 34) and 5′-[…]-3′ (SEQ ID NO: 35); TIPARP: 5′-[…]-3′ (SEQ ID NO: 36) and 5′-[…]-3′ (SEQ ID NO: 37), ACTIN: 5′-[…]-3′ (SEQ ID NO: 38) and 5′-[…]-3′ (SEQ ID NO: 39).

TiPARP mRNA [3] = test system: TiPARP mRNA; remark: listed apart in the source
Protocol: as §3, §4

MCF-7 (ER pos.) = test: IC50 in MCF-7 (ER pos.) cell line; type: cell-based; settings: Homo sapiens, MCF7
HCT116 [4] = test: Growth inhibition IC50 in HCT116 cells, control vs TiPARP knockdown; type: cell-based; settings: Homo sapiens
Protocol: as §1, §2

TiPARP mRNA [5] = test system: TiPARP mRNA; remark: listed apart in the source
Protocol: as §3, §4

SKBR3 (ER neg.) = test: IC50 in SKBR3 (ER neg.) cell line; type: cell-based; settings: Homo sapiens, SK-BR-3
SKBR3 = test: Growth inhibition IC50 in SKBR3 cells, control vs TiPARP knockdown; type: cell-based; settings: Homo sapiens
Protocol: as §1, §2

TiPARP mRNA [6] = test: RT-PCR analysis of TiPARP mRNA level in HEK 293T treated with hypoxia-mimetic agents; type: cell-based, human; settings: FIG. 1C
Source text: FIGS. 1A-1F. TiPARP is a direct target gene of HIFs. (A) A schematic representation of TiPARP promoter. Core sequence of hypoxia-response element (HRE) is highlighted in red. (B) Expression of TiPARP mRNA in HCT116 and MCF-7 cells analyzed by qRT-PCR under normoxia/hypoxia (mean and s.d. of three independent experiments). (C) RT-PCR analysis of TiPARP mRNA level in HEK 293T treated with hypoxia-mimetic agent DMOG and DFO, or transfected with HA tagged HIF-1α. Expression of endogenous or HA-HIF-1α was detected by HIF-1α antibody on western blot (bottom), (D) Schematic representation of the luciferase reporter construct with wild type (WT) or mutated (Mut) HRE. (E) HIF-1α transactivation measured by luciferase reporter with WT or mutant HRE from TiPARP promoter. Transfection efficiencies were normalized to co-transfected Renilla-luciferase. Mean and standard deviation (s.d.) correspond to four technical replicates, representative of three independent experiments. NS, not significant. (F) ChIP assay assessing the chromatin binding of HIF-1α to HRE in TiPARP promoter, RNA polymerase II (Pol II) was used as a positive control.
TiPARP was previously characterized as a TCDD-responsive gene regulated by AHR (Ma, Q. Arch Biochem Biophys 404, 309-316 (2002); Ma, Q. et al, Biochem Biophys Res Commun 289, 499-506, (2001)). […]

MDA-MB-231 (ER negative) = test: IC50 in MDA-MB-231 (ER negative) cell line; type: cell-based; settings: Homo sapiens
[7] = test system: HME1 (normal mammary epithelial cell); test: IC50 in HME1 (normal mammary epithelial cell); type: cell-based
MDA-MB-468 (ER negative) = test: IC50 in MDA-MB-468 (ER negative) cell line; type: cell-based; settings: Homo sapiens
BT549 (ER negative) = test: IC50 in BT549 (ER negative) cell line; type: cell-based; settings: Homo sapiens, BT-549
TiPARP mRNA [8] = settings: human
Protocol: as §3, §4

cMyc protein levels = cMyc protein levels in TiPARP-overexpressing HCT 116C cells with protease inhibitor treatment; type: cell-based, human; settings: 20 μM, over 2 hours, FIG. 10B
Source text: FIGS. 10A-10E. (A) Overexpression of active TiPARP decreases cMyc protein levels. […] (B) TiPARP regulates cMyc protein levels by regulating the protein degradation pathway. […] (D) Knockdown of TiPARP in HCT116 cells caused ERα protein levels to increase. (E) Knockdown of TiPARP in MCF-7 cells caused ERα protein levels to increase.
The inventors also observed that overexpression of active TiPARP decreases cMyc protein levels.
The inventors also discovered the TiPARP regulates cMyc protein levels by regulating the protein degradation pathway.

IC50 (MCF-7; MCF7, MCF-7, Ctrl): 93.4 µM
IC50 (MCF-7; MCF7, MCF-7, TiPARP KD (40%)): 174 µM
IC50 (HCT116 [1]): 20 µM
TiPARP mRNA fold induction (TiPARP mRNA [2]; human): 8.8 fold
TiPARP mRNA fold induction (TiPARP mRNA [3]; human): 2.5 fold
IC50 (MCF-7 (ER pos.)): 19.7 µM
IC50 (HCT116 [4]; HCT-116, HCT116, Ctrl): 30 µM
IC50 (HCT116 [4]; HCT-116, HCT116, TiPARP KD (40%)): 54.8 µM
TiPARP mRNA fold induction (TiPARP mRNA [5]; human): 5.6 fold
IC50 (SKBR3 (ER neg.)): 20 µM
IC50 (SKBR3; SK-BR-3, SKBR3, Ctrl): 52.3 µM
IC50 (SKBR3; SK-BR-3, SKBR3, TiPARP KD (40%)): 83.3 µM
Compound: COc1ccc(-c2coc3cc(O)cc(O)c3c2=O)cc1 [Biochanin A]

Compound: CC(=O)N(O)CCCCCNC(=O)CCC(=O)N(O)CCCCCNC(=O)CCC(=O)N(O)CCCCCN [DFO, desferrioxamine]
TiPARP mRNA level (TiPARP mRNA [6]): increased

Compound: COC(=O)CNC(=O)C(=O)OC [DMOG, dimethyloxalylglycine]
TiPARP mRNA level (TiPARP mRNA [6]): increased

IC50 (MDA-MB-231 (ER negative)): 47.9 µM
IC50 (HCT116 [1]): 39 µM
IC50 (MDA-MB-468 (ER negative)): 13.5 µM
TiPARP mRNA fold induction (TiPARP mRNA [2]; human): 4.2 fold
TiPARP mRNA fold induction (TiPARP mRNA [3]; human): 8.0 fold
IC50 (MCF-7 (ER pos.)): 31 µM
IC50 (BT549 (ER negative)): 32.1 µM
TiPARP mRNA fold induction (TiPARP mRNA [5]; human): 3.3 fold
TiPARP mRNA fold induction (TiPARP mRNA [8]): 3.2 fold
IC50 (SKBR3 (ER neg.)): 45 µM
Compound: c1ccc2c(Cc3c[nH]c4ccccc34)c[nH]c2c1 [Diindolylmethane, diindolylmethane]
IC50 [7]: 51.2 µM

TiPARP mRNA fold induction (TiPARP mRNA [2]): 2.5 fold
TiPARP mRNA fold induction (TiPARP mRNA [3]): 2.3 fold
TiPARP mRNA fold induction (TiPARP mRNA [5]): 1.7 fold
Compound: COc1ccc(-c2coc3cc(O)ccc3c2=O)cc1 [Formonometin, formonometin]

Compound: CC(C)C[C@@H](C=O)NC(=O)[C@H](CC(C)C)NC(=O)[C@H](CC(C)C)NC(=O)OCc1ccccc1 [MG132] (Cbz-Leu-Leu-Leu-aldehyde)
effect on TiPARP-overexpression-induced decrease of cMyc protein levels (cMyc protein levels): effectively blocked the effect of TiPARP overexpression

TiPARP mRNA fold induction (TiPARP mRNA [2]; human): 2.3 fold
TiPARP mRNA fold induction (TiPARP mRNA [3]; human): 1.7 fold
TiPARP mRNA fold induction (TiPARP mRNA [5]; human): 0.81 fold
Compound: COc1ccc2[nH]c([S+]([O-])Cc3ncc(C)c(OC)c3C)nc2c1 (stereo not drawn) [Omerprazole, omeprazole]

IC50 (MDA-MB-231 (ER negative)): 90.4 µM
IC50 (HCT116 [1]): 46 µM
IC50 (MDA-MB-468 (ER negative)): 97.3 µM
IC50 (MCF-7 (ER pos.)): 27.7 µM
IC50 (BT549 (ER negative)): 23.1 µM
IC50 (SKBR3 (ER neg.)): 35.3 µM
Compound: Oc1ccc(C=Cc2cc(O)cc(O)c2)cc1 [Resveratrol, resveratrol]
IC50 [7]: 189 µM

TiPARP mRNA fold induction (TiPARP mRNA [2]): 1.4 fold
TiPARP mRNA fold induction (TiPARP mRNA [3]): 1.4 fold
TiPARP mRNA fold induction (TiPARP mRNA [5]): 1.5 fold
Compound: OCc1c[nH]c2ccccc12 [indole-3-carbinol]
